The target of assay [1] is α4β7 integrin (Homo sapiens (Human), UniProt P13612+P26010). Nature of the assay: Integrin Adhesion Assay: Protocol 1 (MAdCAM-coated plate, RPMI-8866 cells, CellTiter GLO readout). It is filed as cell-based. As to conditions: integrin adhesion assay; determined by at least one of the assays described (protocol not specified). Summed up: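 RPMI-8866 cells (2×10^6 per mL) added with compounds (1% DMSO) to MAdCAM-coated wells blocked in HEPES/NaCl buffer with 1 mM MnCl2, 0.1 mM CaCl2, 1% BSA; 1 h at 37° C, 5% CO2. After four washes, bound cells read by CellTiter GLO luminescence; % inhibition vs DMSO and control wells, 4-parameter fit.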
Chain of α4β7 integrin (P13612 34-1032): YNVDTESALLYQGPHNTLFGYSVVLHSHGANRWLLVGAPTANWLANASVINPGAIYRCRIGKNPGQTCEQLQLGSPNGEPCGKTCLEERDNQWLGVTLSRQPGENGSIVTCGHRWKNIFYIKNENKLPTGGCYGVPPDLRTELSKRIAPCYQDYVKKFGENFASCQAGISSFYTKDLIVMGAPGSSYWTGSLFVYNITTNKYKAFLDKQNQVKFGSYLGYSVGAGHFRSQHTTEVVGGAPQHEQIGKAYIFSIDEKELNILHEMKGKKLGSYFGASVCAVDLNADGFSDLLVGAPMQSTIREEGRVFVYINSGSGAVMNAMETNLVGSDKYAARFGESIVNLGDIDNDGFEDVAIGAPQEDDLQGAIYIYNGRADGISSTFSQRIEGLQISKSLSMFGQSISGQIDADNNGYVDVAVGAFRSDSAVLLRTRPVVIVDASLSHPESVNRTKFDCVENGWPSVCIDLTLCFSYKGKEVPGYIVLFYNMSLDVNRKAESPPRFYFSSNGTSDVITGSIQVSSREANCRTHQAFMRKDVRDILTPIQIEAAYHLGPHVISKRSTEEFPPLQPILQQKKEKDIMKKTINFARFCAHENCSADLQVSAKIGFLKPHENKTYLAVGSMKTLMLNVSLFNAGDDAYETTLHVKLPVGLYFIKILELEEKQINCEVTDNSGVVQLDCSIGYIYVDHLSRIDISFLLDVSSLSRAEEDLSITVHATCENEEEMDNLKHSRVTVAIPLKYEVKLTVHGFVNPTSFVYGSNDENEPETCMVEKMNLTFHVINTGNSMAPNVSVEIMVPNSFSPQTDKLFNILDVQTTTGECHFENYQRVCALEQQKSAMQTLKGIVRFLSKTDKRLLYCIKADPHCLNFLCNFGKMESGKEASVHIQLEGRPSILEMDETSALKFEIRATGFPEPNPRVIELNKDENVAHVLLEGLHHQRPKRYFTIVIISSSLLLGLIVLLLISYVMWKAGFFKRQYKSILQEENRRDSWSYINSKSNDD
Chain of α4β7 integrin (P26010 20-798): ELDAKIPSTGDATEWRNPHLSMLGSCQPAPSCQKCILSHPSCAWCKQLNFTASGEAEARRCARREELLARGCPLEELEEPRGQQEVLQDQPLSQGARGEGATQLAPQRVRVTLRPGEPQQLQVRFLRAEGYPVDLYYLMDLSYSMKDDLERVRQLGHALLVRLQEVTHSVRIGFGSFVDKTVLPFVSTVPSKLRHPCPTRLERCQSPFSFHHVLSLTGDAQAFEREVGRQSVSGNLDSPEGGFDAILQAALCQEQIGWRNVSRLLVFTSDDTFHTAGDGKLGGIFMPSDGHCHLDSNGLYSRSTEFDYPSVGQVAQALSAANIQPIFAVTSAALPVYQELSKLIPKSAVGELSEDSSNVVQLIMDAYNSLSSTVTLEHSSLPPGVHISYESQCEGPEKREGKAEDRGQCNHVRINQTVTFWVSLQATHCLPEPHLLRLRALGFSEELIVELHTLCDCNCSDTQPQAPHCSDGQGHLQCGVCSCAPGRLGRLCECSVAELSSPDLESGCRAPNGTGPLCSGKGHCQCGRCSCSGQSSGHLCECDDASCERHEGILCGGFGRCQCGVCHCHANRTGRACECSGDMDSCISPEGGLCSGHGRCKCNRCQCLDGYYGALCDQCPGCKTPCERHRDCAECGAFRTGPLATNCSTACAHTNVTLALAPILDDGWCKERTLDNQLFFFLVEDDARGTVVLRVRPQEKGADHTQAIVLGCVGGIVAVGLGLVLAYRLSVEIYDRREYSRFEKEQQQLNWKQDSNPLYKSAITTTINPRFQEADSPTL
On the technique in general: Cellular ATP, detected with luciferase, serves as a proxy for viable cell number.

The target of assay [2] is α4β1 integrin (Homo sapiens (Human), UniProt P05556+P13612). Nature of the assay: Integrin Adhesion Assay: Protocol 2 (VCAM-coated plate, Jurkat cells, CellTiter GLO readout). It is filed as cell-based. The following applies: determined by at least one of the assays described (protocol not specified). Here is the method:
α4β7 and α4β1 inhibition was evaluated in vitro using at least one of the following procedures:
Integrin Adhesion Assay: Protocol 2
VCAM (R&D Systems, 0.1 ug) was diluted in 50 μL PBS, added to each well of an opaque ELISA plate (Thermo), and incubated overnight at 4° C. Coated plates were washed once with PBS and then blocked with 200 μL of assay buffer (10 mM HEPES, 150 mM NaCl, 1 mM MnCl2, 0.1 mM CaCl2), 1% BSA) for 1 hour at 37° C. and 5% CO2. After incubation, buffer was aspirated from the plates and 50 μL of fresh assay buffer was added. Compounds were added by compounds dispenser (Tecan) and DMSO concentration was normalized to 1% across each plate. 50 μL of Jurkat cells (2×10^6 per mL) were added to each well and the plates were incubated for 1 hour at 37° C. and 5% CO2. After incubation, plates were allowed to cool to RT for 10 minutes before being washed four times in assay buffer by an automated plate washer (BioTek). After washing, 100 μL of a 1:1 mixture of assay buffer and CellTiter GLO 2.0 reagent (Promega) were added to each well. Plates were mixed for 2 minutes at 1000 rpm and then allowed to incubate an additional 10 minutes before reading out luminescence on a Tecan Spark plate reader. Raw data was converted to percent inhibition based on DMSO only and control compound wells, and curves were analyzed by 4-parameter fit within Dotmatics software.

Consider 41 molecules from patent US20250313535A1, “ALPHA 4 BETA 7 INTEGRIN MODULATORS AND USES THEREOF” (DICE MOLECULES SV, INC., priority 2022, published 2025).

One may read the IC50 as the concentration that inhibits the measured activity by half. A high value points to weaker potency.

Chain of α4β1 integrin (P13612 34-1032): as the sequence (P13612 34-1032) above
Chain of α4β1 integrin (P05556 21-798): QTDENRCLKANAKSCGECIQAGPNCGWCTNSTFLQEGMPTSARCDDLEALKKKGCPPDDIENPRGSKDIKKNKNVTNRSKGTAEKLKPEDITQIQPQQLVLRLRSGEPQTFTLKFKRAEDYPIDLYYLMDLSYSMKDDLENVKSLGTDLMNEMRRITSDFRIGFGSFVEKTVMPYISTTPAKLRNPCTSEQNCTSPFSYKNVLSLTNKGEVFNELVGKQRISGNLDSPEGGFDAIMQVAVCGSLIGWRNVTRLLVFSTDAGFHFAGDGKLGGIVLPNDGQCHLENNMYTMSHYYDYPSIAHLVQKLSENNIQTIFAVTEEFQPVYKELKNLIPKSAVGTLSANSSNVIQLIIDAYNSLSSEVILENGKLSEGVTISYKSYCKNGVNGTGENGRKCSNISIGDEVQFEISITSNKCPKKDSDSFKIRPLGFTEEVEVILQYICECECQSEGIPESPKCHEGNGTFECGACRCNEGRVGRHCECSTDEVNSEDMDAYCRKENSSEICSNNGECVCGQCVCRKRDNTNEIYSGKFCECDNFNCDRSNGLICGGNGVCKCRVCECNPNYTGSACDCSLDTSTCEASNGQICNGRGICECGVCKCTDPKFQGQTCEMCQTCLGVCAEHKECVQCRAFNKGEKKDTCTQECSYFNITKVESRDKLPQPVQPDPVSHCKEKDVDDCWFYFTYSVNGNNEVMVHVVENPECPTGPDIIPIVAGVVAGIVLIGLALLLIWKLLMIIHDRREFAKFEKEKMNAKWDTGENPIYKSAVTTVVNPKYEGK

Consider `Cn1ccc(=O)n(-c2cccc3c(C[C@H](NC(=O)C45CCC(CC4)CC5)C(=O)O)cccc23)c1=O` [Compound 51], for which the IC50 is 100 to 1000 nM in assay [1] and more than 1000 nM in assay [2].

In the case of `Cn1ccc(=O)n(-c2cccc3c(C[C@H](NC(=O)C45CCC(C)(CC4)CC5)C(=O)O)cccc23)c1=O` [Compound 52], the IC50 in assay [1] was 100 to 1000 nM; in assay [2], more than 1000 nM.

Turning to `Cn1ccc(=O)n(-c2cccc3c(C[C@H](NC(=O)C45C[C@H]6C[C@@H](C4)C[C@@H](C5)C6)C(=O)O)cccc23)c1=O` [Compound 53], the results for the IC50 in assay [1] and in assay [2] were 100 to 1000 nM and more than 1000 nM, respectively.

In the case of `Cn1ccc(=O)n(-c2cccc3c(C[C@H](NC(=O)C4(C)CCN(C(=O)C(F)F)CC4)C(=O)O)cccc23)c1=O` [Compound 55], the values for the IC50 in assay [1] and in assay [2] were 100 to 1000 nM and more than 1000 nM, respectively.

Turning to `CCN1CCC(C)(C(=O)N[C@@H](Cc2cccc3c(-n4c(=O)ccn(C)c4=O)cccc23)C(=O)O)C(F)(F)C1` (stereo partly shown) [Compound 56], the IC50 was 100 to 1000 nM in assay [1] and more than 1000 nM in assay [2].

As to `CC(C)N1CCC(C)(C(=O)N[C@@H](Cc2cccc3c(-n4c(=O)ccn(C)c4=O)cccc23)C(=O)O)CC1` [Compound 57], the IC50 was 10 to 100 nM in assay [1] and more than 1000 nM in assay [2].

Regarding `Cn1ccc(=O)n(-c2cccc3c(C[C@H](NC(=O)C4(C)CCN(CC(F)F)CC4)C(=O)O)cccc23)c1=O` [Compound 58], the values for the concentration for half-maximal inhibition (IC50) in assay [1] and in assay [2] were 10 to 100 nM and more than 1000 nM, respectively.

For `CC(C)CN1CCC(C)(C(=O)N[C@@H](Cc2cccc3c(-n4c(=O)ccn(C)c4=O)cccc23)C(=O)O)CC1` [Compound 59], the IC50 in assay [1] is 10 to 100 nM; in assay [2], more than 1000 nM.

Turning to `Cn1ccc(=O)n(-c2cccc3c(C[C@H](NC(=O)C4(C)CCN(C5COC5)CC4)C(=O)O)cccc23)c1=O` [Compound 60], the IC50 in assay [1] is 10 to 100 nM; in assay [2], more than 1000 nM.

`Cn1ccc(=O)n(-c2cccc3c(C[C@H](NC(=O)C45CCN(CC4)CC5)C(=O)O)cccc23)c1=O` [Compound 62]: the IC50 in assay [1] and in assay [2] was more than 1000 nM in each case.

On to `Cn1ccc(=O)n(-c2cccc3c(C[C@H](NC(=O)C4(C)CCC(F)(F)CC4)C(=O)O)cccc23)c1=O` [Compound 63], for which the IC50 was 10 to 100 nM in assay [1] and more than 1000 nM in assay [2].

In the case of `Cn1ccc(=O)n(-c2cccc3c(C[C@H](NC(=O)C4(Cc5ccc(F)cc5)CCC(F)(F)CC4)C(=O)O)cccc23)c1=O` [Compound 64], the IC50 in assay [1] and in assay [2] was more than 1000 nM in each case.

As for `Cn1ccc(=O)n(-c2cccc3c(C[C@H](NC(=O)[C@]45C[C@@H]6C[C@H](C4)C(F)(F)[C@@H](C6)C5)C(=O)O)cccc23)c1=O` [Compound 65], the IC50 in assay [1] and in assay [2] was 100 to 1000 nM throughout.

`CCC1(C(=O)N[C@@H](Cc2cccc3c(-n4c(=O)ccn(C)c4=O)cccc23)C(=O)O)CCC(F)(F)CC1` [Compound 66]: the values for the IC50 in assay [1] and in assay [2] were 100 to 1000 nM and more than 1000 nM, respectively.

As to `Cn1c(C(F)(F)F)ccc(-c2cccc3c(C[C@H](NC(=O)c4c(F)cc(N5CCOC[C@@H]5C(F)(F)F)cc4F)C(=O)O)cccc23)c1=O` [Compound 67], the IC50 in assay [1] was less than 10 nM; in assay [2], more than 1000 nM.

In the case of `Cn1ccc(=O)n(-c2cccc3c(C[C@H](NCc4c(F)cccc4F)C(=O)O)cccc23)c1=O` [Compound 68], the IC50 in assay [1] and in assay [2] was more than 1000 nM throughout.

As to `Cn1ccc(=O)n(-c2cccc3c(C[C@H](NCc4ccccc4)C(=O)O)cccc23)c1=O` [Compound 69], the IC50 in assay [1] and in assay [2] was more than 1000 nM throughout.

For the molecule `Cn1ccc(=O)n(-c2cccc3c(C[C@H](NCc4ccc(N5CCOCC5)cc4)C(=O)O)cccc23)c1=O` [Compound 70], the half-maximal inhibitory concentration (IC50) in assay [1] and in assay [2] was more than 1000 nM each time.

Take `CN([C@H](CCC(=O)O)C(=O)N[C@@H](Cc1cccc2c(-n3c(=O)ccn(C)c3=O)cccc12)C(=O)O)S(=O)(=O)c1ccccc1` [Compound 72]: the results for the IC50 in assay [1] and in assay [2] were 100 to 1000 nM and more than 1000 nM, respectively.

`Cn1ccc(=O)n(-c2cccc3c(C[C@H](NC(=O)C(F)(F)Sc4ccc(Cl)cc4Cl)C(=O)O)cccc23)c1=O` [Compound 76]: the IC50 in assay [1] and in assay [2] was more than 1000 nM in each case.

Regarding `Cn1ccc(=O)n(-c2cccc3c(C[C@H](NC(=O)[C@@H]4CCCN4c4ccccc4C#N)C(=O)O)cccc23)c1=O` [Compound 79], the half-inhibitory concentration (IC50) was 10 to 100 nM in assay [1] and more than 1000 nM in assay [2].

As for `Cn1ccc(C(F)(F)F)c(-c2cccc3c(C[C@H](OCc4c(F)cccc4F)C(=O)O)cccc23)c1=O` [Compound 80], the IC50 in assay [1] and in assay [2] was more than 1000 nM each time.

Turning to `Cn1ccc(=O)n(-c2cccc3c(C[C@H](NC(=O)c4c(F)cc(N5CCOC[C@@H]5C(F)(F)F)cc4F)C(=O)O)cccc23)c1=O` [Compound 108], the IC50 in assay [1] is less than 10 nM; in assay [2], 100 to 1000 nM.

`Cn1ccc(=O)n(-c2cccc3c(C[C@H](NC(=O)c4c(F)cncc4Cl)C(=O)O)cccc23)c1=O` [Compound 110]: the IC50 in assay [1] lay in the range of 10 to 100 nM; in assay [2], 100 to 1000 nM.

For `Cn1ccc(=O)n(-c2cccc3c(C[C@H](NC(=O)c4c(F)cc(NS(C)(=O)=O)cc4F)C(=O)O)cccc23)c1=O` [Compound 111], the results for the 50% inhibitory concentration (IC50) in assay [1] and in assay [2] were less than 10 nM and 100 to 1000 nM, respectively.

As for `CC[C@@H](Nc1cc(F)c(C(=O)N[C@@H](Cc2cccc3c(-n4c(=O)ccn(C)c4=O)cccc23)C(=O)O)c(F)c1)C(F)(F)F` [Compound 112], the IC50 in assay [1] was less than 10 nM; in assay [2], more than 1000 nM.

In the case of `Cc1cc(C(F)(F)F)c(-c2cccc3c(C[C@H](NC(=O)c4c(F)cc(N5CCOC[C@@H]5C(F)(F)F)cc4F)C(=O)O)cccc23)c(=O)n1C` [Compound 113], the IC50 in assay [1] is less than 10 nM; in assay [2], 100 to 1000 nM.

Consider `Cn1ccc(=O)n(-c2cccc3c(C[C@H](NC(=O)c4c(F)cc(NCC(F)(F)F)cc4F)C(=O)O)cccc23)c1=O` [Compound 114], for which the IC50 in assay [1] was less than 10 nM; in assay [2], more than 1000 nM.

For the molecule `Cn1ccc(C(F)(F)F)c(-c2cccc3c(C[C@H](NC(=O)c4c(F)cccc4F)C(=O)O)cccc23)c1=O` [Compound 115], the 50% inhibitory concentration (IC50) fell in the range of 10 to 100 nM in assay [1] and 100 to 1000 nM in assay [2].

With `CN(C)CCc1cc(=O)n(-c2cccc3c(C[C@H](NC(=O)c4c(F)cccc4F)C(=O)O)cccc23)c(=O)n1C` [Compound 116], the concentration for half-maximal inhibition (IC50) in assay [1] was 10 to 100 nM; in assay [2], more than 1000 nM.

Consider `CN(C)CCc1cn(C)c(=O)n(-c2cccc3c(C[C@H](NC(=O)c4c(F)cccc4F)C(=O)O)cccc23)c1=O` [Compound 117], for which the values for the IC50 in assay [1] and in assay [2] were 10 to 100 nM and more than 1000 nM, respectively.

In the case of `Cn1cc(CCN2CC(F)C2)c(=O)n(-c2cccc3c(C[C@H](NC(=O)c4c(F)cccc4F)C(=O)O)cccc23)c1=O` [Compound 118], the concentration for half-maximal inhibition (IC50) in assay [1] was 10 to 100 nM; in assay [2], more than 1000 nM.

On to `CN(C)CCn1ccc(=O)n(-c2cccc3c(C[C@H](NC(=O)c4c(F)cccc4F)C(=O)O)cccc23)c1=O` [Compound 119], for which the IC50 in assay [1] was 10 to 100 nM; in assay [2] it was more than 1000 nM.

With `Cn1ccc(=O)n(-c2cccc3c(C[C@H](NC(=O)c4c(F)ccc(NCC(F)(F)F)c4F)C(=O)O)cccc23)c1=O` [Compound 120], the IC50 in assay [1] is 10 to 100 nM; in assay [2] it was more than 1000 nM.

For `Cn1ccc(=O)n(-c2cccc3c(C[C@H](NC(=O)c4cc5ncn(CC(F)(F)F)c5cc4F)C(=O)O)cccc23)c1=O` [Compound 124], the IC50 in assay [1] was 10 to 100 nM; in assay [2] it was more than 1000 nM.

For the molecule `Cn1ccc(=O)n(-c2cccc3c(C[C@H](NC(=O)c4c(F)cc5c(cnn5CC(F)(F)F)c4F)C(=O)O)cccc23)c1=O` [Compound 126], the IC50 is less than 10 nM in assay [1] and 100 to 1000 nM in assay [2].

Consider `CNC(=O)[C@@H]1CCN1C(=O)c1ccc2cc(C(=O)N[C@@H](Cc3cccc4c(-n5c(=O)ccn(C)c5=O)cccc34)C(=O)O)ccc2c1` [Compound 127], for which the IC50 in assay [1] and in assay [2] was more than 1000 nM throughout.

With `CNC(=O)[C@@H]1CC[C@H](c2ccccc2)N1C(=O)c1ccc2cc(C(=O)N[C@@H](Cc3cccc4c(-n5c(=O)ccn(C)c5=O)cccc34)C(=O)O)ccc2c1` [Compound 128], the values for the IC50 in assay [1] and in assay [2] were 100 to 1000 nM and more than 1000 nM, respectively.

`O=C(N[C@@H](Cc1cccc2c(-c3nccc4ccncc34)cccc12)C(=O)O)c1c(F)cc(N2CCOC[C@@H]2C(F)(F)F)cc1CN1CCOCC1` [Compound 129]: the IC50 in assay [1] was less than 10 nM; in assay [2] it was 100 to 1000 nM.

Take `Cn1ccc(=O)n(-c2cccc3c(C[C@H](NC(=O)c4c(F)cc(N(CC(F)(F)F)CC(F)(F)F)cc4F)C(=O)O)cccc23)c1=O` [Compound 130]: the IC50 was less than 10 nM in assay [1] and more than 1000 nM in assay [2].

For `Cn1ccc(=O)n(-c2cccc3c(C[C@H](NC(=O)c4c(F)cc(C#N)cc4F)C(=O)O)cccc23)c1=O` [Compound 131], the half-maximal inhibitory concentration (IC50) in assay [1] lay in the range of 10 to 100 nM; in assay [2] it was 100 to 1000 nM.
